Key:
Assay type in all cases: cell-based
[1] = test system: Brettanomyces bruxellensus; experiment: Growth in 10% apple juice beverage with combinations of LAE & cinnamic acid; log (QA/Qa+QB/Qb) calculation
Source text: (§1) Trans-cinnamic acid and lauric arginate were combined in the following beverage formulation: [table] […] The analysis of the interaction between lauric arginate and cinnamic acid can be refined through use of a mathematical method developed by Voorspuij and Nass (Arch. Int. pharmacodyn. 59:211 1957) (generally accepted among those practiced in the art.) Herein, the interactions between two active substances can be explored. First the quantity (Qa=Molar Cone) of compound A required for an end point (concentration required to stabilize product for 16 weeks) is established. Similarly, the quantity (Qb =Molar cone) of substance B required to establish the same endpoint is established. Thereafter, mixtures of A & B, in quantities QA & Qs are established that also define endpoints. […] If the sum of the ratios for a mixture of A & Bare=1, then the interaction is considered additive. […] Calculation of log (QA/Qa+QB/Qb) for LAE+trans Cinnamic Acid vs Brettanomyces bruzellensus

Brettanomyces nardensis = experiment: as above
Source text: as §1, with “bruzellensus” left out

Zygosaccharomyces bailii = experiment: as above
Source text: as §1, with “Zygosaccharomyces bailii” for “Brettanomyces bruzellensus”

[2] = test system: seven bio-indicator strains (Zygosaccharomyce baili, Brettanomyces species, Saccharomyces cerevisiae, Paecilomyces lilacinus, Zygosaccharomyces bisporus …); experiment: Example 2: growth/no growth of seven bio-indicator strains in 4% apple juice beverage, 16 weeks; conditions: FIGS. 1a, 1b; stand alone; pH 3.4; 16 weeks at 25° C.
Source text: A single preparation of base beverage was employed to prepare each of five tests and consisted of 4% apple juice, 68 g sucrose/L, 52 g glucose/L, 2 g fructose/L prepared in batch water that was formulated to 90 ppm hardness with calcium chloride and magnesium chloride. […] The total combined quantity of sodium malate and malic acid was near constant, but the ratio of malic acid and malate varied slightly given the presence or absence of lauric arginate or cinnamic acid. Where required, lauric arginate or cinnamic acid was supplemented from separately prepared stock solutions. Each of the five tests employed the same bio-indicator organisms; Growth (+) versus no growth (-) established by visual inspection or spectrophotometrically. […] Y3, Zygosaccharomyce baili, Pepsi isolate 906; C-7UP, Brettanomyces species, Pepsi Isolate; Spore, an ascospore preparation of Saccharomyces cerevisiae 99 a Pepsi Isolate; […], Zygosaccharomyces baili, ATCC 60484; Spores, M7, Paecilomyces lilacinus ATCC 90461; […], Zygosaccharomyces bisporus ATCC 52407; Spores, M4, Talaromvces flavus var. flavus ATCC 10512. Samples were incubated for period of 16 weeks at 25° C. in vessels protective against evaporation.

[3] = pH 3.0, LAE 0 ppm, Cinnamic Acid 10 ppm
[4] = pH 3.0, LAE 0 ppm, Cinnamic Acid 20 ppm
[5] = pH 3.0, LAE 0 ppm, Cinnamic Acid 50 ppm
[6] = pH 3.0, LAE 0 ppm, Cinnamic Acid 75 ppm
[7] = pH 3.0, LAE 0 ppm, Cinnamic Acid 100 ppm
[8] = pH 3.5, LAE 0 ppm, Cinnamic Acid 10 ppm
[9] = pH 3.5, LAE 0 ppm, Cinnamic Acid 20 ppm
[10] = pH 3.5, LAE 0 ppm, Cinnamic Acid 50 ppm
[11] = pH 3.5, LAE 0 ppm, Cinnamic Acid 75 ppm
[12] = pH 3.5, LAE 0 ppm, Cinnamic Acid 100 ppm
[13] = pH 4.0, LAE 0 ppm, Cinnamic Acid 10 ppm
[14] = pH 4.0, LAE 0 ppm, Cinnamic Acid 20 ppm
[15] = pH 4.0, LAE 0 ppm, Cinnamic Acid 50 ppm
[16] = pH 4.0, LAE 0 ppm, Cinnamic Acid 75 ppm
[17] = pH 4.0, LAE 0 ppm, Cinnamic Acid 100 ppm
[18] = stand alone, end point = concentration required to stabilize product for 16 weeks
[19] = pH 3.0, LAE 2.5 ppm, Cinnamic Acid 0 ppm
[20] = pH 3.0, LAE 5 ppm, Cinnamic Acid 0 ppm
[21] = pH 3.0, LAE 7.5 ppm, Cinnamic Acid 0 ppm
[22] = pH 3.0, LAE 10 ppm, Cinnamic Acid 0 ppm
[23] = pH 3.0, LAE 15 ppm, Cinnamic Acid 0 ppm
[24] = pH 3.5, LAE 2.5 ppm, Cinnamic Acid 0 ppm
[25] = pH 3.5, LAE 5 ppm, Cinnamic Acid 0 ppm
[26] = pH 3.5, LAE 7.5 ppm, Cinnamic Acid 0 ppm
[27] = pH 3.5, LAE 10 ppm, Cinnamic Acid 0 ppm
[28] = pH 3.5, LAE 15 ppm, Cinnamic Acid 0 ppm
[29] = pH 4.0, LAE 2.5 ppm, Cinnamic Acid 0 ppm
[30] = pH 4.0, LAE 5 ppm, Cinnamic Acid 0 ppm
[31] = pH 4.0, LAE 7.5 ppm, Cinnamic Acid 0 ppm
[32] = pH 4.0, LAE 10 ppm, Cinnamic Acid 0 ppm
[33] = pH 4.0, LAE 15 ppm, Cinnamic Acid 0 ppm

Compound: O=C(O)/C=C/c1ccccc1 [Cinnamic Acid, trans-cinnamic acid]
- QA/Qa + QB/Qb ([1]; QLAE 0, QCA 75): 1.00
- QLAE/QLAE* ([1]; QLAE 0, QCA 75): 0.00
- QNaB/QNAB* ([1]; QLAE 0, QCA 75): 1.00
- log (QA/Qa + QB/Qb) ([1]; QLAE 0, QCA 75): 0.0000
- amount of growth (normalized) to control [1, 3]: 85%
- amount of growth (normalized) to control [1, 4]: 82%
- amount of growth (normalized) to control [1, 5]: 4%
- amount of growth (normalized) to control [1, 6]: 1%
- amount of growth (normalized) to control [1, 7]: 1%
- amount of growth (normalized) to control [1, 8]: 90%
- amount of growth (normalized) to control [1, 9]: 89%
- amount of growth (normalized) to control [1, 10]: 27%
- amount of growth (normalized) to control [1, 11]: 0%
- amount of growth (normalized) to control [1, 12]: 0%
- amount of growth (normalized) to control [1, 13]: 99%
- amount of growth (normalized) to control [1, 14]: 96%
- amount of growth (normalized) to control [1, 15]: 65%
- amount of growth (normalized) to control [1, 16]: 1%
- amount of growth (normalized) to control [1, 17]: 1%
- QCA* (quantity of cinnamic acid alone required for the end point) [1, 18]: QCA* 75
- QA/Qa + QB/Qb (Brettanomyces nardensis; QLAE 0, QCA 50): 1.00
- QLAE/QLAE* (Brettanomyces nardensis; QLAE 0, QCA 50): 0.00
- QNaB/QNAB* (Brettanomyces nardensis; QLAE 0, QCA 50): 1.00
- log (QA/Qa + QB/Qb) (Brettanomyces nardensis; QLAE 0, QCA 50): 0.0000
- amount of growth (normalized) to control (Brettanomyces nardensis; [3]): 89%
- amount of growth (normalized) to control (Brettanomyces nardensis; [4]): 67%
- amount of growth (normalized) to control (Brettanomyces nardensis; [5]): 1%
- amount of growth (normalized) to control (Brettanomyces nardensis; [6]): 0%
- amount of growth (normalized) to control (Brettanomyces nardensis; [7]): 0%
- amount of growth (normalized) to control (Brettanomyces nardensis; [8]): 88%
- amount of growth (normalized) to control (Brettanomyces nardensis; [9]): 79%
- amount of growth (normalized) to control (Brettanomyces nardensis; [10]): 2%
- amount of growth (normalized) to control (Brettanomyces nardensis; [11]): 1%
- amount of growth (normalized) to control (Brettanomyces nardensis; [12]): 1%
- amount of growth (normalized) to control (Brettanomyces nardensis; [13]): 118%
- amount of growth (normalized) to control (Brettanomyces nardensis; [14]): 101%
- amount of growth (normalized) to control (Brettanomyces nardensis; [15]): 5%
- amount of growth (normalized) to control (Brettanomyces nardensis; [16]): 2%
- amount of growth (normalized) to control (Brettanomyces nardensis; [17]): 1%
- QCA* (quantity of cinnamic acid alone required for the end point) (Brettanomyces nardensis; [18]): QCA* 50
- QA/Qa + QB/Qb (Zygosaccharomyces bailii; QLAE 0, QCA 300): 1.00
- QLAE/QLAE* (Zygosaccharomyces bailii; QLAE 0, QCA 300): 0.00
- QNaB/QNAB* (Zygosaccharomyces bailii; QLAE 0, QCA 300): 1.00
- log (QA/Qa + QB/Qb) (Zygosaccharomyces bailii; QLAE 0, QCA 300): 0.0000
- amount of growth (normalized) to control (Zygosaccharomyces bailii; [3]): 89%
- amount of growth (normalized) to control (Zygosaccharomyces bailii; [4]): 82%
- amount of growth (normalized) to control (Zygosaccharomyces bailii; [5]): 85%
- amount of growth (normalized) to control (Zygosaccharomyces bailii; [6]): 45%
- amount of growth (normalized) to control (Zygosaccharomyces bailii; [7]): 36%
- amount of growth (normalized) to control (Zygosaccharomyces bailii; [8]): 97%
- amount of growth (normalized) to control (Zygosaccharomyces bailii; [9]): 92%
- amount of growth (normalized) to control (Zygosaccharomyces bailii; [10]): 76%
- amount of growth (normalized) to control (Zygosaccharomyces bailii; [11]): 57%
- amount of growth (normalized) to control (Zygosaccharomyces bailii; [12]): 48%
- amount of growth (normalized) to control (Zygosaccharomyces bailii; [13]): 103%
- amount of growth (normalized) to control (Zygosaccharomyces bailii; [14]): 94%
- amount of growth (normalized) to control (Zygosaccharomyces bailii; [15]): 78%
- amount of growth (normalized) to control (Zygosaccharomyces bailii; [16]): 74%
- amount of growth (normalized) to control (Zygosaccharomyces bailii; [17]): 56%
- QCA* (quantity of cinnamic acid alone required for the end point) (Zygosaccharomyces bailii; [18]): QCA* 300
- concentration required to inhibit all seven bio-indicator strains [2]: 1.61 mM

Compound: CCCCCCCCCCCC(=O)N[C@@H](CCCNC(=N)N)C(=O)OCC.Cl [LAE, ethyl-N-lauroyl-L-argniate hydrochloride]
- amount of growth (normalized) to control [1, 19]: 97%
- amount of growth (normalized) to control [1, 20]: 101%
- amount of growth (normalized) to control [1, 21]: 96%
- amount of growth (normalized) to control [1, 22]: 102%
- amount of growth (normalized) to control [1, 23]: 94%
- amount of growth (normalized) to control [1, 24]: 96%
- amount of growth (normalized) to control [1, 25]: 106%
- amount of growth (normalized) to control [1, 26]: 110%
- amount of growth (normalized) to control [1, 27]: 114%
- amount of growth (normalized) to control [1, 28]: 118%
- amount of growth (normalized) to control [1, 29]: 115%
- amount of growth (normalized) to control [1, 30]: 125%
- amount of growth (normalized) to control [1, 31]: 124%
- amount of growth (normalized) to control [1, 32]: 124%
- amount of growth (normalized) to control [1, 33]: 131%
- QLAE* (quantity of LAE alone required for the end point) [1, 18]: QLAE* 30
- QA/Qa + QB/Qb (Brettanomyces nardensis; QLAE 15, QCA 0): 1.00
- QLAE/QLAE* (Brettanomyces nardensis; QLAE 15, QCA 0): 1.00
- QNaB/QNAB* (Brettanomyces nardensis; QLAE 15, QCA 0): 0.00
- log (QA/Qa + QB/Qb) (Brettanomyces nardensis; QLAE 15, QCA 0): 0.0000
- amount of growth (normalized) to control (Brettanomyces nardensis; [19]): 89%
- amount of growth (normalized) to control (Brettanomyces nardensis; [20]): 116%
- amount of growth (normalized) to control (Brettanomyces nardensis; [21]): 90%
- amount of growth (normalized) to control (Brettanomyces nardensis; [22]): 99%
- amount of growth (normalized) to control (Brettanomyces nardensis; [23]): 0%
- amount of growth (normalized) to control (Brettanomyces nardensis; [24]): 112%
- amount of growth (normalized) to control (Brettanomyces nardensis; [25]): 86%
- amount of growth (normalized) to control (Brettanomyces nardensis; [26]): 81%
- amount of growth (normalized) to control (Brettanomyces nardensis; [27]): 57%
- amount of growth (normalized) to control (Brettanomyces nardensis; [28]): 0%
- amount of growth (normalized) to control (Brettanomyces nardensis; [29]): 109%
- amount of growth (normalized) to control (Brettanomyces nardensis; [30]): 104%
- amount of growth (normalized) to control (Brettanomyces nardensis; [31]): 97%
- amount of growth (normalized) to control (Brettanomyces nardensis; [32]): 0%
- amount of growth (normalized) to control (Brettanomyces nardensis; [33]): 0%
- QLAE* (quantity of LAE alone required for the end point) (Brettanomyces nardensis; [18]): QLAE* 15
- QA/Qa + QB/Qb (Zygosaccharomyces bailii; QLAE 76, QCA 0): 1.00
- QLAE/QLAE* (Zygosaccharomyces bailii; QLAE 76, QCA 0): 1.00
- QNaB/QNAB* (Zygosaccharomyces bailii; QLAE 76, QCA 0): 0.00
- log (QA/Qa + QB/Qb) (Zygosaccharomyces bailii; QLAE 76, QCA 0): 0.0000
- amount of growth (normalized) to control (Zygosaccharomyces bailii; [19]): 81%
- amount of growth (normalized) to control (Zygosaccharomyces bailii; [20]): 88%
- amount of growth (normalized) to control (Zygosaccharomyces bailii; [21]): 82%
- amount of growth (normalized) to control (Zygosaccharomyces bailii; [22]): 79%
- amount of growth (normalized) to control (Zygosaccharomyces bailii; [23]): 75%
- amount of growth (normalized) to control (Zygosaccharomyces bailii; [24]): 95%
- amount of growth (normalized) to control (Zygosaccharomyces bailii; [25]): 75%
- amount of growth (normalized) to control (Zygosaccharomyces bailii; [26]): 75%
- amount of growth (normalized) to control (Zygosaccharomyces bailii; [27]): 78%
- amount of growth (normalized) to control (Zygosaccharomyces bailii; [28]): 86%
- amount of growth (normalized) to control (Zygosaccharomyces bailii; [29]): 94%
- amount of growth (normalized) to control (Zygosaccharomyces bailii; [30]): 80%
- amount of growth (normalized) to control (Zygosaccharomyces bailii; [31]): 85%
- amount of growth (normalized) to control (Zygosaccharomyces bailii; [32]): 114%
- amount of growth (normalized) to control (Zygosaccharomyces bailii; [33]): 124%
- QLAE* (quantity of LAE alone required for the end point) (Zygosaccharomyces bailii; [18]): QLAE* 76
- concentration required to inhibit all seven bio-indicator strains [2]: 0.16 mM
